# Results: EP0958822A1, “THE OCULAR HYPOTENSIVE ACTIVE COMPOSITIONS” (Lin, Tongho, priority 1996, dated 1998)
# Test system: New Zealand albino rabbits
# Experiment: IOP recovery after hypertonic saline infusion (ocular hypertensive rabbit model)
# Type: in vivo
# Conditions: 50 µl instilled in eye
# Experimental: 1981, vol 13 pp72-79. New Zealand albino rabbits of either sex were used in the study. A 20 % hypertonic saline solution was infused at the speed of 1 ml […] for 10 minutes through the marginal ear vein with an infusion pump. […] Then the IOP of both eyes were measured with a Tono-Pen XL Tonometer (Mentor, Norwell , MA) at 30 minute and 10 minute intervals before the experiment. At the time of commencement, as well as at 10, 20, 40, 60, and 80 min intervals measurements were taken. Then measurements were repeated at every 30 minute intervals. […] The IOP recovery curve acquired had shifted to the right and below the curve of the controlled group.
smiles,measurement,setting,value
CCN1CCCC1CNC(=O)c1cc(S(N)(=O)=O)ccc1OC (centres unmarked) [Sulpiride],IOP recovery time,"0.5% drop solution, 20 % hypertonic saline infusion",didn't show a significant ability in decreasing IOP
same,decreasing IOP,20% drop solution,it did so when the concentration was raised to 20%
